Measured values taken from patent US20110160196A1, “FACTOR XA INHIBITORS” (Millennium Pharmaceuticals, Inc., priority 2007, published 2011).
pIC50: −log10 of the molar value.

These molecules were tested against T1, human plasma protein factor Xa (Homo sapiens, UniProt P00742) (assay: Factor Xa IC50 determination (cleavage of paranitroanilide substrate S-2765)). Conditions: factor Xa 1 nM, S-2765 100 μM, Tris buffered saline pH 7.4, read at 405 nm.
T1 construct: The human plasma protein factor Xa was purchased; purchased Haematologic Technologies (Essex Junction, Vt.); host or cells: human plasma
T1 sequence (P00742 235-488 limits assumed): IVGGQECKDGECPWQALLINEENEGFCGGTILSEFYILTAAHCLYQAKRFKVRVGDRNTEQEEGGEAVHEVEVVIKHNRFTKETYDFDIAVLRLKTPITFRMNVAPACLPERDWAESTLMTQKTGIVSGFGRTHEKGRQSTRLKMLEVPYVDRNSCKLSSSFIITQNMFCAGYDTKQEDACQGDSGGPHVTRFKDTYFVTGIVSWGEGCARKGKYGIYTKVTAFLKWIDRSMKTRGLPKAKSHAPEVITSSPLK
T1 sequence (P00742 41-179 partner limits assumed): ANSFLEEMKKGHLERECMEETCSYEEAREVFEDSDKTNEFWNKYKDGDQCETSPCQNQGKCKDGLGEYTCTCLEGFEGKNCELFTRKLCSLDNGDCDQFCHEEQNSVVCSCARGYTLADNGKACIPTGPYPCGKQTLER
Format: biochemical
Summary of the method: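 Human plasma factor Xa (1 nM) preincubated 5 min at room temperature with inhibitor (0.01 nM–10 μM) in Tris-buffered saline pH 7.4 with 5 mM CaCl2, 0.1% BSA, 5% DMSO. S-2765 added at 100 μM final; pNA release followed at 405 nm for 2 min. IC50 from four-parameter fit of initial velocities.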
Work on `O=C(NCc1nnn(-c2ccc(-n3ccccc3=O)cc2OC[C@@H](O)CO)c1I)c1ccc(Cl)s1` [Compound 155, 5-Chloro-N-((1-(2-((S)-2,3-dihydroxypropoxy)-4-(2-oxopyridin-1(2H)-yl)phenyl)-5-iodo-1H-1,2,3-triazol-4-yl)methyl)thiophene-2-carboxamide] yielded a pIC50 of no less than 7.00. In the case of `O=C(NCc1cn(-c2ccc(-n3ccccc3=O)cc2OCCn2cccn2)nn1)c1ccc(Cl)s1` [Compound 156, N-((1-(2-(2-(1H-Pyrazol-1-yl)ethoxy)-4-(2-oxopyridin-1(2H)-yl)phenyl)-1H-1,2,3-triazol-4-yl)methyl)-5-chlorothiophene-2-carboxamide], the pIC50 was no less than 7.00. Work on `O=C(NCc1cn(-c2ccc(N3CCCCC3=O)cc2N2CCSCC2)nn1)c1ccc(Cl)s1` [Compound 157, 5-Chloro-N-((1-(4-(2-oxopiperidin-1-yl)-2-thiomorpholinophenyl)-1H-1,2,3-triazol-4-yl)methyl)thiophene-2-carboxamide] yielded a pIC50 of no less than 7.00. `O=C(NCc1cn(-c2ccc(N3CCCCC3=O)cc2N2CCS(=O)(=O)CC2)nn1)c1ccc(Cl)s1` [Compound 158, 5-Chloro-N-((1-(4-(2-oxopiperidin-1-yl)-2-((1,1-dioxo)thiomorpholino)phenyl)-1H-1,2,3-triazol-4-yl)methyl)thiophene-2-carboxamide] gave a pIC50 of no less than 7.00. Work on `O=C1CN(c2cc(N3CCCCC3=O)ccc2-n2cc(CNC(=O)c3ccc(Cl)s3)nn2)CCN1` [Compound 159, 5-Chloro-N-((1-(2-(3-oxopiperazin-1-yl)-4-(2-oxopiperidin-1-yl)phenyl)-1H-1,2,3-triazol-4-yl)methyl)thiophene-2-carboxamide] yielded a pIC50 of no less than 7.00. Molecule `O=C(NCc1cn(-c2ccc(-n3ccccc3=O)cc2CN2CCOCC2)nn1)c1ccc(Cl)s1` [Compound 160, 5-Chloro-N-((1-(2-(morpholinomethyl)-4-(2-oxopyridin-1(2H)-yl)phenyl)-1H-1,2,3-triazol-4-yl)methyl)thiophene-2-carboxamide] has a pIC50 of no less than 7.00. For `O=C1CN(Cc2cc(-n3ccccc3=O)ccc2-n2cc(CNC(=O)c3ccc(Cl)s3)nn2)CCN1` [Compound 161, 5-Chloro-N-((1-(2-((3-oxopiperazin-1-yl)methyl)-4-(2-oxopyridin-1(2H)-yl)phenyl)-1H-1,2,3-triazol-4-yl)methyl)thiophene-2-carboxamide], the pIC50 was no less than 7.00. `O=C(NCc1cn(-c2ccc(-n3ccccc3=O)cc2CN2CCSCC2)nn1)c1ccc(Cl)s1` [Compound 162, 5-Chloro-N-((1-(4-(2-oxopyridin-1(2H)-yl)-2-(thiomorpholinomethyl)phenyl)-1H-1,2,3-triazol-4-yl)methyl)thiophene-2-carboxamide] gave a pIC50 of no less than 7.00. `O=C(NCc1cn(-c2ccc(-n3ccccc3=O)cc2CN2CCS(=O)(=O)CC2)nn1)c1ccc(Cl)s1` [Compound 163, 5-Chloro-N-((1-(4-(2-oxopyridin-1(2H)-yl)-2-(1,1,- dioxothiomorpholinomethyl)phenyl)-1H-1,2,3-triazol-4-yl)methyl)thiophene-2-carboxamide] was tested, and the pIC50 was no less than 7.00. Molecule `CCOc1cc(-n2ccccc2=O)ccc1-n1cc(CNC(=O)c2ccc(Cl)s2)nn1` [Compound 164, 5-Chloro-N-((1-(2-ethoxy-4-(2-oxopyridin-1(2H)-yl)phenyl)-1H-1,2,3-triazol-4-yl)methyl)thiophene-2-carboxamide] has a pIC50 of no less than 7.00. For `O=C(NCc1cn(-c2ccc(-n3ccccc3=O)cc2OCc2cccnc2)nn1)c1ccc(Cl)s1` [Compound 165, 5-Chloro-N-((1-(4-(2-oxopyridin-1(2H)-yl)-2-(pyridin-3-ylmethoxy)phenyl)-1H-1,2,3-triazol-4-yl)methyl)thiophene-2-carboxamide], the pIC50 was no less than 7.00. `O=C(NCc1cn(-c2ccc(-n3ccccc3=O)cc2OCc2ccncc2)nn1)c1ccc(Cl)s1` [Compound 167, 5-Chloro-N-((1-(4-(2-oxopyridin-1(2H)-yl)-2-(pyridin-4-ylmethoxy)phenyl)-1H-1,2,3-triazol-4-yl)methyl)thiophene-2-carboxamide] gave a pIC50 of no less than 7.00.
